Source: patent US6319955A, “Use of MEK1 inhibitors as protective agents against damage due to ischemia” (priority 2000, dated 2001)

What was measured:
SAPKs/JNKs = conditions: Cohen, Trends Cell Biol. 7:353, 1997; cited from earlier work
p38 MAP kinase = conditions: Cohen, Trends Cell Biol. 7:353, 1997; cited from earlier work
[1] = system: neurological deficits caused by ischemia; experiment: neurological grading after 2 hours of MCA occlusion and reperfusion; assay type: in vivo, mouse (SV-129); conditions: three days after 2 hours MCA occlusion and reperfusion; mean±SEM; vehicle 2.2±0.3; P<0.05
Method: Data are presented as mean ±SEM Data were analyzed by Student-t test or one-way ANOVA followed by Bonferroni's post hoc test.

[2] = regional cerebral blood flow by Laser-Doppler flowmetry, PD98059; assay type: in vivo, mouse; conditions: 200 μM PD98059, n = 5, % of baseline, means ±SD
Excerpt: Data are presented as means ±SD. Therefore, the decrease in ERK1/2 phosphorylation seen with PD98059 was not due to higher blood flow.

MEK1 = conditions: Favata et al., 1998, DeSilva et al.; cited from earlier work
[3] = mouse, in vivo
[4] = mean arterial blood pressure, PD98059; assay type: in vivo, mouse
Method: Mean arterial blood pressure (MABP) was determined in the presence or absence of 200 μM PD98059 10 minutes before and 1 hour after induction of ischemia, and 30 minutes after reperfusion under 1% halothane anesthesia (Table 2). Data are presented as means±SD. MABP was determined to be unaltered.

[5] = arterial blood pH, pCO2 and pO2, PD98059; assay type: in vivo, mouse
Method: Partial oxygen tension (pO2), partial carbon dioxide tension (pCO2), and blood pH were determined in the presence or absence of 200 μM PD98059, 1 hour after the induction of ischemia under 1% halothane anesthesia (Table 3).

ERK1/2 [6] = experiment: immunohistochemistry of phosphorylated ERK1/2 in brain slices after ischemia and reperfusion (PD98059 i.c.v.); assay type: in vivo, mouse (SV-129); conditions: 2 μl of 200 μM i.c.v. 30 min before ischemia; 120 min ischemia, 3 min reperfusion
[7] = compared with native tPA; cited from earlier work
ERK1/2 [8] = conditions: 5 mM glutamate

C[S+]([O-])c1ccc(-c2nc(-c3ccncc3)c(-c3ccc(F)cc3)[nH]2)cc1 (centres unmarked) [SB203580]
inhibitor of SAPKs/JNKs (concentration) (SAPKs/JNKs): > 10 µM | inhibitor of p38 MAP kinase (concentration) (p38 MAP kinase): 1 to 2 µM

COc1cccc(-c2cc(=O)c3ccccc3o2)c1N [PD98059, 2-(2-amino-3-methoxyphenyl)-4-oxo-4H-[1]benzopyran]
neurological grading [1]: 0.71±0.29 | RCBF (after MCA) ([2]; 30 min reperfusion, DMSO 102.5% ± 6.8): 94.9% ± 8.9 | RCBF (during MCA) ([2]; DMSO 25.2% ± 5.7): 15.9% ± 1.7 | inhibition of active / inactive MEK1, in words (MEK1): cannot efficiently inhibit MEK1 once it is activated | body temperature [3]: 34.6±0.8 °C | temporal muscle temperature [3]: 35.5±0.1 °C | MABP (before) ([4]; 200 μM PD98059, n = 5, 10 minutes before ischemia, means±SD, DMSO 80.7 ± 7.5, in mmHg (unit assumed)): 86.4 ± 10.9 | MABP (after) ([4]; 200 μM PD98059, n = 5, 30 minutes after reperfusion, means±SD, DMSO 82.8 ± 13.5): 86.0 ± 12.3 | MABP (during) ([4]; 200 μM PD98059, n = 5, 1 hour after induction of ischemia, means±SD, DMSO 82.3 ± 2.1, in mmHg (unit assumed)): 81.8 ± 4.1 | MABP, in words ([4]; 200 μM PD98059 vs DMSO): unaltered | blood pH ([5]; 200 μM PD98059, n = 5, 1 hour after induction of ischemia, means ±SD, DMSO 7.32 ± 0.06): 7.32 ± 0.07 | PCO2 ([5]; 200 μM PD98059, n = 5, 1 hour after induction of ischemia, means ±SD, DMSO 48.8 ± 5.1, in mmHg (unit assumed)): 49.9 ± 3.5 | PO2 ([5]; 200 μM PD98059, n = 5, 1 hour after induction of ischemia, means ±SD, DMSO 155.3 ± 13.8, in mmHg (unit assumed)): 139.1 ± 21.6 | pO2, pCO2, and blood pH, in words ([5]; 200 μM PD98059 vs DMSO): did not differ between the two groups | cell injury (HT22 cells; PD98059 50 μM, 9 hours after 5 mM glutamate): partially attenuated cell injury | protective effects (HT22 cells; PD98059 50 μM, 24 hours after 5 mM glutamate): did not sustain for 24 hours | phosphorylation of ERK1/2 in the middle cerebral artery territory (ERK1/2 [6]): reduced

conjugation of tPA to polyethylene glycol: conjugation of tPA to polyethylene glycol
clearance rate, in words [7]: reduce the clearance rate of tPA

N[C@@H](CCC(=O)O)C(=O)O [glutamate]
time of further increase of ERK1/2 phosphorylation after glutamate addition (ERK1/2 [8]): 7 to 8 h | completion of cell injury after addition of glutamate (HT22 cells; 5 mM glutamate (FIG. 5A)): up to 10 hours | onset of cell injury after addition of glutamate (HT22 cells; 5 mM glutamate (FIG. 5A)): 8 h
